Reference: patent US20210403498A1, “PHYTOCHEMICAL-FRUCTOOLIGOSACCHARIDE CONJUGATE, METHOD FOR PRODUCING SAME, AND USE THEREOF” (EVERGREEN BIO CO., LTD., priority 2018, published 2021)
≈ marks a conversion by molar mass, not a printed value. Like-named read-outs stand apart in the source and are kept apart here.

Columns and labels:
[1] = system: Lovo (Colorectal adenocarcinoma capable of metastasis); assay: CCK-8 cell proliferation, metastasis colorectal cancer cells; type: cell-based, human; details: for SI (Selectivity Index): IC50 for Normal cell (CCD 18Co)/IC50 for Lovo; for IC50: Lovo, 72 hr, CCK-8
Method: (§1) Specifically, the cell lines cultured in each well of a 96-well plate were dispensed at a density of 18,000 cells per well and cultured overnight, and then the cells were treated with drugs dissolved in various concentrations in the culture medium, and were incubated for 72 hr under a temperature of 37° C. and 5% CO2 condition in a humidified incubator. After completion of the culture, the medium was removed and replaced with 100 μl of PBS, and […] Cell Counting Kit-8 (CCK-8; Dojindo, Japan) solution was added thereto, and the cells were incubated for 3 hr for reaction. Thereafter, the degree of color development of the reaction solution was measured based on absorbance at 450 nm, and the number of cell proliferation was calculated according to the instructions of the producing company.
(§2) HT-29 cells were cultured in McCoy's 5A medium, LoVo cells were cultured in Ham's F-12K (Kaigh's) medium, CCD 18Co cells were cultured in DMEM. Before use, 10% Fetal bovine serum and 100 U/ml penicillin, streptomycin were added to all media.

[2] = system: HT-29 (Colorectal adenocarcinoma); assay: CCK-8 cell proliferation, colorectal cancer cells; type: cell-based, human; details: for IC50: HT-29, 72 hr, CCK-8; for SI (Selectivity Index): IC50 for Normal cell (CCD 18Co)/IC50 for HT-29
Method: as §1, §2

[3] = system: CCD 18Co (Normal Human colon fibroblast primary cell line); assay: CCK-8 cell proliferation, normal colon cells; type: cell-based; details: 72 hr
Method: as §1, §2

[4] = In vivo pharmacokinetics in rats (FA in plasma, LC MS/MS); details: male, Sprague Dawley; rat plasma, single oral dose 100 mg/kg FA
Method: In order to evaluate the in vivo pharmacokinetics of FA-FOS II, the release profile of ferulic acid (FA) released from FA-FOS II in the colon of rats was investigated. Specifically, male Sprague Dawley rats weighing 180 to 250 g were randomly assigned to three groups as follows.
(ii) Ferulic acid (FA) administered group: a drug is prepared by dissolving ferulic acid (FA) in water and is administered orally thereto at a predetermined dose
(iii) FA-FOS II administered group: a drug is prepared by dissolving FA-FOS II in water and is administered orally thereto at a predetermined dose
Ferulic acid (FA) was orally administered to the rats at a dose of 100 mg/kg body weight, based on the amount of ferulic acid (FA), in the state dissolved in sterile water. Further, FA-FOS II was orally administered thereto at a dose of 3.89 g/kg body weight (equivalent to 100 mg/kg body weight in terms of the amount of ferulic acid) based on the amount of FA-FOS II, in the state dissolved in sterile water. After single dose administration via oral intake, rat blood was continuously sampled over 0, 0.5, 1, 3, 6, 8, 12, 24 hr. The sampled samples were subjected to LC MS/MS analysis in a multiple reaction monitoring (MRM) manner of a molecular weight 193.0/133.9 Da (intact mass/fragment mass of FA) to quantify the FA released from plasma.

IC50 ([1]; Homo sapiens, read-out: IC50) [µg/mL]	IC50 ([2]; Homo sapiens, read-out: IC50) [µg/mL]	Tmax [4] [min]	half-life [4] [min]	Compound	SI (Selectivity Index) [1]	IC50 [1] [µg/mL]	IC50 [2] [µg/mL]	SI (Selectivity Index) [2]	IC50 [3] [µg/mL]	IC50 ([3]; Homo sapiens, read-out: IC50) [µg/mL]
–	–	–	–	O=C1[O][Pt]2([NH][C@@H]3CCCC[C@H]3[NH]2)[O]C1=O [Oxaliplatin, oxaliplatin]	(SI: 1.473)	0.068	0.015	(SI: 6.631)	0.100	–
0.074 (≈ 0.569 µM)	0.008 (≈ 0.0615 µM)	–	–	O=c1[nH]cc(F)c(=O)[nH]1 [5-Fluorouracil, 5-fluorouracil]	(SI: 0.186)	–	–	(SI: 1.685)	–	0.014 (≈ 0.108 µM)
0.244 (≈ 1.26 µM)	0.2 (≈ 1.03 µM)	~5	~30	COc1cc(/C=C/C(=O)O)ccc1O [FA, ferulic acid]	(SI: >2.389)	–	–	(SI: >2.918)	–	0.583 (≈ 3 µM)
